The data set is described as follows: CLA analysis immediately after the processing step (pelleting / extrusion). The class given is physicochemical. The method, then: Preparation of the meal: Corn and extracted soybean meal were weighed in together, ground and mixed in a horizontal mixer. Lutalin or Lutrell were added and mixed in. The mixing time amounted to 15 minutes. These two mixtures were divided in each case. 80 kg were pelleted and 30 kg were extruded.
Pelleting press: Manufacturer Simon Heesen, horizontal die, 3.3×35 mm, nominal capacity 300 kg/hr. Extruder: Werner & Pfleiderer 37, die 2×0 3.9 mm, nominal capacity up to 50 kg/hr. Pelleting: Pelleting temperatures of 67-68.5° C. were reached. Extrusion: An extrusion temperature of 85° C. was reached, approximately 14% of water having been added. A residual moisture of 10 to 12% has been found in the end product.

The values that follow come from patent US20200268005A1, “PELLETED RUMINANT FEED ENRICHED WITH RUMEN-AVAILABLE INGREDIENTS” (BASF SE, priority 2014, published 2020).

Turning to conjugated linoleic acid [CLA], for the setting “extrusion temperature 85° C.”, the “activity loss on extrusion” value was “approx. 40%”. In addition, the “survival of the pelleting process” value (pelleting 67-68.5° C., in words) is given as “survived the pelleting process very well”.
